According to patent US20250270170A1, “2,3-DIMETHOXY-5-METHYL-1,4-BENZOQUINONE ALKYL ALCOHOL DERIVATIVE AND USE THEREOF” (BEIJING ANJIANXI BIO-MEDICAL TECHNOLOGY CO., LTD., priority 2021, published 2025):
Several values for one entry are separate records, joined by “and”; a condition that tells them apart may be missing. Equal values may be shown once.

Tests used:
[1] = system: cisplatin-induced acute kidney damage in mice; test: Example 11: serum urea nitrogen (Bun) in cisplatin-induced acute kidney damage model; format: in vivo, C57BL/6J mice; details: for serum urea nitrogen value vs model group: P>0.05; for Urea nitrogen (Bun) level after the assay, x (mean): group mean; for Urea nitrogen (Bun) level after the assay, x (mean) / Urea nitrogen (Bun) level after the assay: cisplatin model; for Urea nitrogen (Bun) level after the assay: individual animals No. 1-7
Description: 42 male C57BL/6J mice (age: 6 to 8 weeks, body weight 18-20 g, certificate number: 11400700238365) were purchased from Si Pei Fu (Beijing) Biotechnology Co., Ltd., and raised in an SPF-grade animal room of the Institute of Materia Medica, Chinese Academy of Medical Sciences, at a temperature of 20 to 25° C., a relative humidity of 40% to 70%, and a cycle of 12 hours of light and 12 hours of dark. The animals had free access to water and food. After 3 days of normal feeding, mice with good physical conditions after the veterinary examination were selected for this assay. Before grouping, a marker was used to mark on the base of the animals' tail. After grouping, each animal was marked with an ear cutout (7 mice in each group).
Assay animals: 42 7-week-old male C57 mice were used for animal testing after an adaptive feeding.
Group 1: blank control group;
The preparation of the R01 formulation administration test solution was the same as that in Example 5: an appropriate amount of the R01 formulation was weighed according to the three dosages set in the assay, respectively, and an appropriate volume of 0.5% CMC-Na aqueous solution was added. The mixture was vortexed and sonicated until mixed evenly, to give the administration test solutions with concentrations of […], respectively, which were ready for use.
Animal testing period: 7 days (excluding adaptive feeding), hereinafter referred to as: D1-D7.
1. The first group was a solvent control group: N=7, all mice were males (the same below); • a) 0.5% solution of sodium carboxymethyl cellulose was gavagely administered from D1 to D6 (twice a day for each animal, with an interval of 8 hours between the morning and the afternoon). • b) Physiological saline was intraperitoneally injected in one-time on D4. • c) On D7, blood was collected from the orbit for euthanasia (300 ul of serum was extracted), the left kidney was fixed in formaldehyde, and the right kidney was preserved in liquid nitrogen (WB study may be carried out).
1) The concentrations of urea nitrogen and creatinine in peripheral blood serum were tested.
The body weight of the animals when being grouped for administration in each group was recorded. The body weight and the kidney weight at the end of the assay were also recorded, and the kidney coefficient was calculated. The creatinine and urea nitrogen values in the blood samples sent for testing were recorded. The kidneys were stained with HE and PAS, and the slides were scanned. A report was issued after the pathological analysis.
The assay data were calculated and processed statistically using Microsoft Office Excel 2007 software. Unless otherwise specified, the data were expressed as mean±standard error (Mean±SE), and t-test was used for comparison between two groups.

[2] = system: NCI-H460 cells; test: Cell EDU proliferation assay, NCI-H460; format: cell-based, human; details: 150 μM
Description: The compound of formula (I) at a concentration of 150 μM was co-cultured with the cells for 42 h, and then the FBS concentration in the FBS stimulation well was increased to 20%. The cells were cultured for another 6 h, and then detected using a Cell-Light EDUApollo567 kit.
(1) Cells in the logarithmic growth phase were taken, and inoculated into a 24-well culture plate at 1×10^4 cells per well. The culture plate was cultured in a 37° C. incubator under the condition of 5% CO2, and drug was added according to the assay design when the cells adhered to the wall.
(2) After the drug treatment, the Cell-Light EDU Apollo567 kit was taken out. The reagent A in the kit was diluted with 1640 complete culture medium at a ratio of 1000:1 to prepare a 50 μM EDU culture medium, 300 μl of which was configured to each well of the 24-well plate. The 24-well plate was taken out from the incubator, and the original culture medium was aspirated with a vacuum aspirator. […]
(12) 150 μl of PBS was added to each well to wash once, and the PBS was discarded. Then, 200 μl of PBS was added, and the plate was placed on an inverted fluorescence microscope to take pictures. 6 fields of view were taken for each well under a 200× field of view, and the proportion of EDU-positive cells among 100 cells was calculated. […]

Question: `COC1=C(OC)C(=O)C(CCCCCCCCCCOC(=O)Cc2c(C)n(C(=O)c3ccc(Cl)cc3)c3ccc(OC)cc23)=C(C)C1=O` [compound of formula (I)] was tested. Which “serum urea nitrogen value” ([1]; R01 high-dosage group (36 mg/kg bid) with cisplatin 10 mg/kg, P<0.05) did it give?
Answer: significantly lower than that of the model group

Question: And the “serum urea nitrogen value vs model group” value ([1]; R01 low-dosage group (6 mg/kg bid) with cisplatin 10 mg/kg)?
Answer: no significant difference

Question: And the “serum urea nitrogen value vs model group” value ([1]; R01 medium-dosage group (18 mg/kg bid) with cisplatin 10 mg/kg)?
Answer: no significant difference

Question: And the “Urea nitrogen (Bun) level after the assay, x (mean)” value (“Urea nitrogen (Bun) level … (mean)” for short) ([1]; R01 6 mg/kg)?
Answer: 16.1 mg/dL

Question: And the “Urea nitrogen (Bun) level … (mean)” value ([1]; R01 18 mg/kg)?
Answer: 16.1 mg/dL

Question: What about the “Urea nitrogen (Bun) level … (mean)” value ([1]; R01 36 mg/kg) of the same compound?
Answer: 13.7 mg/dL

Question: What about the “Urea nitrogen (Bun) level after the assay” value ([1]; R01 6 mg/kg, listed as R01, 6 mg/kg) of the same compound?
Answer: 28.3 mg/dL and 29.25 mg/dL and 10.62 mg/dL and 11.72 mg/dL and 13.85 mg/dL and 4.91 mg/dL and 14.1 mg/dL

Question: And the “Urea nitrogen (Bun) level after the assay” value ([1]; R01 18 mg/kg, listed as R01, 18 mg/kg)?
Answer: 13.41 mg/dL and 15.83 mg/dL and 19.59 mg/dL and 14.73 mg/dL and 10.38 mg/dL and 22 mg/dL and 16.55 mg/dL

Question: And the “Urea nitrogen (Bun) level after the assay” value ([1]; R01 36 mg/kg, listed as R01, 36 mg/kg)?
Answer: 12.39 mg/dL and 12.73 mg/dL and 14.32 mg/dL and 14.34 mg/dL and 9.98 mg/dL and 14 mg/dL and 17.8 mg/dL

Question: What about the “proportion of proliferating cells (EDU)” value ([2]; 48 hours, vs CTL (0 μM)) of the same compound?
Answer: significantly reduced

Question: And the “cell proliferation under FBS stimulation (EDU)” value ([2]; FBS increased to 20% for last 6 h)?
Answer: can inhibit the cell proliferation effect
